Experimental data published in US11649246B2, “Salts of 4-amino-N-(l-((3-chloro-2-fluorophenyl)amino)-6-methylisoquinolin-5-yl)thieno[3,2-D]pyrimidine-7-carboxamide, and crystalline forms thereof” (Hanmi Pharm. Co., Ltd., priority 2017, dated 2023).

What was measured:
Type in all cases: physicochemical
[1] = Long-term stability at 20° C. to 30° C., 60% relative humidity, protection from light; details: 60% RH
Protocol: The stability of crystalline Formula (I) bis-hydrochloride Form I was evaluated at 3 months, 6 months, 9 months, 12 months, 18 months and 24 under conditions of 20° C. to 30° C. at 60% relative humidity and protection from light. Stability criteria included the following. At each interval from 3 to 24 months the crystalline Formula (I) bis-hydrochloride Form I appeared as a pale brown to off-white powder. Identification was performed by IR, PXRD and HPLC methods as described elsewhere herein with results reported as pass/fail. Purity was determined by HPLC with known impurities at relative retention times (“RRT”) of 1.1, 1.7 and 2.1. The results are shown in Table 22 where “Init” refers to initial, “Iden” refers to identification, “Imp” refers to impurity, “A.U.I.” refers to any unspecified impurity, “T.U.I.” refers to total unspecified impurity, “T.I.” refers to total impurities, and “N.D.” refers to not detected. The PXRD results at initial, 6 months, 12 months and 24 months are depicted in FIG. 33.

[2] = Partition / distribution coefficient octanol-water (Sirius T3); details: octanol/water
Protocol: The partition coefficient, Log P, was measured with a T3 (Sirius Analytical Instrument Ltd., UK). About 1 mg of Formula (I) bis-hydrochloride was added to a 15 mL GLpKa beaker, dissolved with octanol/150 mM KCl, adjusted to pH 1.8 with 0.5 N HCl, and titrated up to pH 12.2 with 0.5 N KOH. The partition coefficient of the octanol-water system was determined by correcting the difference between titration curves of the blank from the titration curve, by inserting the value of the dissociation constant measured previously.

[3] = Hygroscopicity by dynamic vapor sorption (DVS); details: Form I trihydrate
Protocol: Dynamic vapor sorption (DVS) analysis was performed in a DVS advantage (Surface measurement system, United Kingdom) analyzer at 25° C. with a relative humidity of 0% to 90%. A sample in an amount of 10 mg was placed into a wire-mesh vapor sorption balance pan and then attached to a DVS advantage dynamic vapor sorption balance via surface measurement systems. […] Upon completion of the sorption cycle, the sample was dried using the same process while maintaining a relative humidity of 0%. The changes in the sample weight during the adsorption/desorption cycle (repeated 3 times) were recorded and the hygroscopicity of the sample was measured. DVS isotherm diagrams are presented in FIGS. 1, 3, 6, 10, 13, 16 and 19 where Target PP (%) refers to relative humidity, “SORP” refers to adsorption and “DESORP” refers to desorption.
Hygroscopicity was measured by DVS where the DVS curve for Formula (I) bis-hydrochloride was recorded in a DVS Advantage I analyzer (SMS, United Kingdom). The DVS was operated over 3 cycles for measurement of the surface adsorption effects of water, from 0% RH to 90% RH at 25°.

A.U.I. (any unspecified impurity) ([1]; 3 mo): 0.03% | Identity HPLC ([1]; 3 mo): pass | Imp 1 ([1]; 3 mo): 0.02% | Imp RRT 1.7 ([1]; 3 mo): 0.08% | Purity ([1]; 3 mo): 99.8% | T.I. (total impurities) ([1]; 3 mo): 0.15% | T.U.I (total unspecified impurity) ([1]; 3 mo): 0.05% | A.U.I. (any unspecified impurity) ([1]; 6 mo): 0.03% | Identity HPLC ([1]; 6 mo): pass | Identity IR ([1]; 6 mo): pass | Identity PXRD ([1]; 6 mo): pass | Imp 1 ([1]; 6 mo): 0.03% | Imp RRT 1.7 ([1]; 6 mo): 0.08% | Purity ([1]; 6 mo): 99.8% | T.I. (total impurities) ([1]; 6 mo): 0.16% | T.U.I (total unspecified impurity) ([1]; 6 mo): 0.05% | A.U.I. (any unspecified impurity) ([1]; 9 mo): 0.03% | Identity HPLC ([1]; 9 mo): pass | Imp 1 ([1]; 9 mo): 0.02% | Imp RRT 1.7 ([1]; 9 mo): 0.08% | Purity ([1]; 9 mo): 99.8% | T.I. (total impurities) ([1]; 9 mo): 0.16% | T.U.I (total unspecified impurity) ([1]; 9 mo): 0.05% | A.U.I. (any unspecified impurity) ([1]; 12 mo): 0.06% | Identity HPLC ([1]; 12 mo): pass | Identity IR ([1]; 12 mo): Pass | Identity PXRD ([1]; 12 mo): Pass | Imp 1 ([1]; 12 mo): 0.02% | Imp RRT 1.7 ([1]; 12 mo): 0.02% | Purity ([1]; 12 mo): 99.8% | T.I. (total impurities) ([1]; 12 mo): 0.14% | T.U.I (total unspecified impurity) ([1]; 12 mo): 0.09% | A.U.I. (any unspecified impurity) ([1]; 18 mo): 0.06% | Identity HPLC ([1]; 18 mo): pass | Imp 1 ([1]; 18 mo): 0.02% | Imp RRT 1.7 ([1]; 18 mo): 0.02% | Purity ([1]; 18 mo): 99.9% | T.I. (total impurities) ([1]; 18 mo): 0.13% | T.U.I (total unspecified impurity) ([1]; 18 mo): 0.09% | A.U.I. (any unspecified impurity) ([1]; 24 mo): 0.06% | Identity HPLC ([1]; 24 mo): pass | Imp 1 ([1]; 24 mo): 0.02% | Imp RRT 1.7 ([1]; 24 mo): 0.02% | Purity ([1]; 24 mo): 99.8% | T.I. (total impurities) ([1]; 24 mo): 0.15% | T.U.I (total unspecified impurity) ([1]; 24 mo): 0.11% | A.U.I. (any unspecified impurity) ([1]; Init): 0.04% | Identity HPLC ([1]; Init): pass | Identity IR ([1]; Init): pass | Identity PXRD ([1]; Init): pass | Imp 1 ([1]; Init): 0.01% | Imp RRT 1.7 ([1]; Init): 0.08% | Purity ([1]; Init): 99.9% | T.I. (total impurities) ([1]; Init): 0.14% | T.U.I (total unspecified impurity) ([1]; Init): 0.05% | logD ([2]; pH 1): 0.02 | logD ([2]; pH 1.2): 0.05 | logD ([2]; pH 2): 0.77 | logD ([2]; pH 3): 2.64 | logD ([2]; pH 4): 4.26 | logD ([2]; pH 5): 5.06 | logD ([2]; pH 6): 5.22 | logD ([2]; pH 6.5): 5.24 | logD ([2]; pH 7): 5.24 | logD ([2]; pH 8): 5.24 | logD ([2]; pH 9): 5.23 | logD ([2]; pH 10): 5.11 | logD ([2]; pH 11): 4.71 | logD ([2]; pH 12): 4.4 | water content (DVS) ([3]; at 20% relative humidity (sorption and desorption)): about 9% | water content (DVS) ([3]; at 90% relative humidity (sorption and desorption)): about 14%
Structure (SMILES): Cc1ccc2c(Nc3cccc(Cl)c3F)nccc2c1NC(=O)c1csc2c(N)ncnc12 [Example 3, 4-amino-N-(1-((3-chloro-2-fluorophenyl)amino)-6-methylisoquinolin-5-yl)thieno[3,2-d]pyrimidine-7-carboxamide]
